From US8765741B2, “5,6-dihydro-1H-pyridin-2-one compounds” (Anadys Pharmaceuticals, Inc., priority 2007, dated 2014)

What follows are molecules tested against NS5B polymerase (Hepatitis C virus genotype 1b, UniProt P26663) (assay: biochemical). Settings: not given.
Method: Compounds were tested for HCV polymerase inhibition. Assays were performed in a 96-well streptavidin-coated FlashPlate using 20 nM enzyme, 0.5 μCi of [α-^33P]GTP, 0.6 μM GTP, and 250 nM 5′biotinylated oligo (rG13)/poly rC in 20 mM Tris-HCl, pH 7.5, 5 mM MgCl2, 5 mM dithiothreitol, 0.1 g/L bovine serum albumin, and 100 U/mL RNAse inhibitor. The reaction was stopped by aspiration after 75 min at 28° C. and the plate was washed several times. After washing and drying the plate, incorporated radioactivity was counted using a Microbeta scintillation counter. IC50 values were calculated relative to the uninhibited control and inhibition data were fitted to a 4-parameter IC50 equation.

Chain of NS5B polymerase (P26663 2420-3010): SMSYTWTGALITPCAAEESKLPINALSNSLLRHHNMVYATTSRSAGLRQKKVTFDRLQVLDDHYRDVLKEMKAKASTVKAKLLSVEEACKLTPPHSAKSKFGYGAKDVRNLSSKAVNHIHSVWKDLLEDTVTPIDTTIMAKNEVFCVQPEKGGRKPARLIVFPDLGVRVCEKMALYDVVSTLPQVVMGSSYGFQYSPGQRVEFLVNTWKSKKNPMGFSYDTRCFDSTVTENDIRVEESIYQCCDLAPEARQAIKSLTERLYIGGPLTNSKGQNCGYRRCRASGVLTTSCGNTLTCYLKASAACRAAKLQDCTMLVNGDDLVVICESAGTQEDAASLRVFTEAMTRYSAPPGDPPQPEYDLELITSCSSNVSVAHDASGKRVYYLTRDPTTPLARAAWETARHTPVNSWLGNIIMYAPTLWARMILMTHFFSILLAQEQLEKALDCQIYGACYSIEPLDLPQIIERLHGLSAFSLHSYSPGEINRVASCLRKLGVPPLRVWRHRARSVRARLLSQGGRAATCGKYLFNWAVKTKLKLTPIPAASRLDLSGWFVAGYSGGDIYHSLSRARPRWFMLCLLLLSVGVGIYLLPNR

Q: Which IC50 does the source give for `CS(=O)(=O)Nc1ccc2c(c1)S(=O)(=O)N=C(C1=C(O)C3C4CCC(C4)C3N(Cc3ccc(F)cc3)C1=O)N2` (racemic) [Example 1, (rac-di-exo)-N-{3-[3-(4-Fluoro-benzyl)-6-hydroxy-4-oxo-3-aza-tricyclo[6.2.1.0^2,7]undec-5-en-5-yl]-1,1-dioxo-1,4-dihydro-1λ^6-benzo[1,2,4]thiadiazin-7-yl}-methanesulfonamide] here?
A: The IC50 was under 20 nM.

Same assay, conditions: NS5B polymerase inhibition; 20 nM enzyme, 75 min at 28° C.

Q: For `CS(=O)(=O)Nc1ccc2c(c1)S(=O)(=O)N=C(C1=C(O)C3C4CCC(C4)C3N(Cc3ccc(F)cc3)C1=O)N2` (racemic) [Example 2, (rac-di-endo)-N-{3-[3-(4-Fluoro-benzyl)-6-hydroxy-4-oxo-3-aza-tricyclo[6.2.1.0^2,7]undec-5-en-5-yl]-1,1-dioxo-1,4-dihydro-1λ^6-benzo[1,2,4]thiadiazin-7-yl}-methanesulfonamide], which IC50 is on record?
A: The IC50 was under 20 nM.

Same assay, conditions: NS5B polymerase inhibition; 20 nM enzyme, 75 min at 28° C.; read-out: IC50

Q: Which IC50 does the source give for `CS(=O)(=O)Nc1ccc2c(c1)S(=O)(=O)N=C(C1=C(O)C3C4CCC(C4)C3N(Cc3ccc(F)cn3)C1=O)N2` (racemic) [Example 3, (rac-di-endo)-N-{3-[3-(5-Fluoro-pyridin-2-ylmethyl)-6-hydroxy-4-oxo-3-aza-tricyclo[6.2.1.0^2,7]undec-5-en-5-yl]-1,1-dioxo-1,4-dihydro-1λ^6-benzo[1,2,4]thiadiazin-7-yl}-methanesulfonamide] here?
A: The IC50 was 100 to 1000 nM.

Q: How did the IC50 turn out when `CS(=O)(=O)Nc1ccc2c(c1)S(=O)(=O)N=C(C1=C(O)C3C4CCC(O4)C3N(Cc3ccc(F)cc3)C1=O)N2` (racemic) [Example 8, (rac-di-exo)-N-{3-[3-(4-Fluoro-benzyl)-6-hydroxy-4-oxo-11-oxa-3-aza-tricyclo[6.2.1.0^2,7]undec-5-en-5-yl]-1,1-dioxo-1,4-dihydro-1λ^6-benzo[1,2,4]thiadiazin-7-yl}-methanesulfonamide] was run?
A: The IC50 was under 20 nM.

Q: With `CS(=O)(=O)Nc1ccc2c(c1)S(=O)(=O)N=C(C1=C(O)C3C4C=CC(C4)C3N(Cc3ccc(F)cc3)C1=O)N2` (racemic) [Example 9, (rac-di-exo)-N-{3-[3-(4-Fluoro-benzyl)-6-hydroxy-4-oxo-3-aza-tricyclo[6.2.1.0^2,7]undeca-5,9-dien-5-yl]-1,1-dioxo-1,4-dihydro-1λ^6-benzo[1,2,4]thiadiazin-7-yl}-methanesulfonamide] as the molecule, how does the IC50 read?
A: The IC50 was 20 to 100 nM.

Q: For `CS(=O)(=O)Nc1ccc2c(c1)S(=O)(=O)N=C(C1=C(O)C3C4C=CC(C4)C3N(Cc3ccc(F)cc3)C1=O)N2` (racemic) [Example 10, (rac-di-endo)-N-{3-[3-(4-Fluoro-benzyl)-6-hydroxy-4-oxo-3-aza-tricyclo[6.2.1.0^2,7]undeca-5,9-dien-5-yl]-1,1-dioxo-1,4-dihydro-1λ^6-benzo[1,2,4]thiadiazin-7-yl}-methanesulfonamide], which IC50 is on record?
A: Its IC50 is 20 to 100 nM.

Q: Which IC50 does the source give for `Cc1cc(CN2C(=O)C(C3=NS(=O)(=O)c4cc(NS(C)(=O)=O)ccc4N3)=C(O)C3C4CCC(O4)C32)ccc1F` (racemic) [Example 12, (rac-di-exo)-N-{3-[3-(4-Fluoro-3-methyl-benzyl)-6-hydroxy-4-oxo-11-oxa-3-aza-tricyclo[6.2.1.0^2,7]undec-5-en-5-yl]-1,1-dioxo-1,4-dihydro-1λ^6-benzo[1,2,4]thiadiazin-7-yl}-methanesulfonamide] here?
A: Its IC50 is under 20 nM.

Q: Which IC50 does the source give for `CC(C)(C)CCN1C(=O)C(C2=NS(=O)(=O)c3cc(NS(C)(=O)=O)ccc3N2)=C(O)C2C3CCC(O3)C21` (racemic) [Example 13, (rac-di-exo)-N-{3-[3-(3,3-Dimethyl-butyl)-6-hydroxy-4-oxo-11-oxa-3-aza-tricyclo[6.2.1.0^2,7]undec-5-en-5-yl]-1,1-dioxo-1,4-dihydro-1λ^6-benzo[1,2,4]thiadiazin-7-yl}-methanesulfonamide] here?
A: The IC50 was 20 to 100 nM.

Q: `CS(=O)(=O)Nc1ccc2c(c1)S(=O)(=O)N=C(C1=C(O)C3C4CCC(O4)C3N(CCC3CC3)C1=O)N2` (racemic) [Example 23, (rac-di-exo)-N-{3-[3-(2-Cyclopropyl-ethyl)-6-hydroxy-4-oxo-11-oxa-3-aza-tricyclo[6.2.1.0^2,7]undec-5-en-5-yl]-1,1-dioxo-1,4-dihydro-1λ^6-benzo[1,2,4]thiadiazin-7-yl}-methanesulfonamide] was tested. Which IC50 did it give?
A: The IC50 was under 20 nM.

Q: For `CC(C)CCN1C(=O)C(C2=NS(=O)(=O)c3cc(NS(C)(=O)=O)ccc3N2)=C(O)C2C3CCC(O3)C21` (racemic) [Example 25, (rac-di-exo)-N-{3-[6-Hydroxy-3-(3-methyl-butyl)-4-oxo-11-oxa-3-aza-tricyclo[6.2.1.0^2,7]undec-5-en-5-yl]-1,1-dioxo-1,4-dihydro-1λ^6-benzo[1,2,4]thiadiazin-7-yl}-methanesulfonamide], which IC50 is on record?
A: Its IC50 is under 20 nM.

Q: For `CC(C)CCN1C(=O)C(C2=NS(=O)(=O)c3cc(NS(C)(=O)=O)ccc3N2)=C(O)C2C3C=CC(C3)C21` (racemic) [Example 31, (rac-di-exo)-N-{3-[6-Hydroxy-3-(3-methyl-butyl)-4-oxo-3-aza-tricyclo[6.2.1.0^2,7]undeca-5,9-dien-5-yl]-1,1-dioxo-1,4-dihydro-1λ^6-benzo[1,2,4]thiadiazin-7-yl}-methanesulfonamide], which IC50 is on record?
A: Its IC50 is 20 to 100 nM.

Q: With `CC(C)(C)CCN1C(=O)C(C2=NS(=O)(=O)c3cc(NS(C)(=O)=O)ccc3N2)=C(O)C2C3C=CC(C3)C21` (racemic) [Example 32, (rac-di-exo)-N-{3-[3-(3,3-Dimethyl-butyl)-6-hydroxy-4-oxo-3-aza-tricyclo[6.2.1.0^2,7]undeca-5,9-dien-5-yl]-1,1-dioxo-1,4-dihydro-1λ^6-benzo[1,2,4]thiadiazin-7-yl}-methanesulfonamide] as the molecule, how does the IC50 read?
A: The IC50 was 20 to 100 nM.

Q: With `CC(C)CCN1C(=O)C(C2=NS(=O)(=O)c3cc(I)ccc3N2)=C(O)C2C3CCC(O3)C21` (racemic) [Example 33, (rac-di-exo)-6-Hydroxy-5-(7-iodo-1,1-dioxo-1,4-dihydro-1λ^6-benzo[1,2,4]thiadiazin-3-yl)-3-(3-methyl-butyl)-11-oxa-3-aza-tricyclo[6.2.1.0^2,7]undec-5-en-4-one] as the molecule, how does the IC50 read?
A: Its IC50 is 1000 to 100000 nM.

Q: How did the IC50 turn out when `CC(C)(C)CCN1C(=O)C(C2=CS(=O)(=O)c3cc(NS(C)(=O)=O)ccc3N2)=C(O)C2C3C=CC(C3)C21` (racemic) [Example 36, (rac-di-exo)-N-{3-[3-(3,3-Dimethyl-butyl)-6-hydroxy-4-oxo-3-aza-tricyclo[6.2.1.0^2,7]undeca-5,9-dien-5-yl]-1,1-dioxo-1,4-dihydro-1λ^6-benzo[1,4]thiazin-7-yl}-methanesulfonamide] was run?
A: The IC50 was 20 to 100 nM.

Q: How did the IC50 turn out when `CS(=O)(=O)Nc1ccc2c(c1)S(=O)(=O)C=C(C1=C(O)C3C4C=CC(C4)C3N(Cc3ccc(F)cc3)C1=O)N2` (racemic) [Example 37, (rac-di-exo)-N-{3-[3-(4-Fluoro-benzyl)-6-hydroxy-4-oxo-3-aza-tricyclo[6.2.1.0^2,7]undeca-5,9-dien-5-yl]-1,1-dioxo-1,4-dihydro-1λ^6-benzo[1,4]thiazin-7-yl}-methanesulfonamide] was run?
A: The IC50 was under 20 nM.

Q: For `CC(C)CCN1C(=O)C(C2=CS(=O)(=O)c3cc(NS(C)(=O)=O)ccc3N2)=C(O)C2C3C=CC(C3)C21` (racemic) [Example 38, (rac-di-exo)-N-{3-[6-Hydroxy-3-(3-methyl-butyl)-4-oxo-3-aza-tricyclo[6.2.1.0^2,7]undeca-5,9-dien-5-yl]-1,1-dioxo-1,4-dihydro-1λ^6-benzo[1,4]thiazin-7-yl}-methanesulfonamide], which IC50 is on record?
A: Its IC50 is 20 to 100 nM.

Q: How did the IC50 turn out when `CN(c1ccc2c(c1)S(=O)(=O)N=C(C1=C(O)C3C4C=CC(C4)C3N(Cc3ccc(F)cc3)C1=O)N2)S(C)(=O)=O` (racemic) [Example 39, (rac-di-exo)-N-{3-[3-(4-Fluoro-benzyl)-6-hydroxy-4-oxo-3-aza-tricyclo[6.2.1.0^2,7]undeca-5,9-dien-5-yl]-1,1-dioxo-1,4-dihydro-1λ^6-benzo[1,2,4]thiadiazin-7-yl}-N-methyl-methanesulfonamide] was run?
A: The IC50 was 1000 to 100000 nM.

Q: How did the IC50 turn out when `CC(C)CCN1C(=O)C(C2=NS(=O)(=O)c3cc(NS(=O)(=O)C4CC4)ccc3N2)=C(O)C2C3CCC(O3)C21` (racemic) [Example 42, (rac-di-exo)-Cyclopropanesulfonic acid{3-[6-hydroxy-3-(3-methyl-butyl)-4-oxo-11-oxa-3-aza-tricyclo[6.2.1.0^2,7]undec-5-en-5-yl]-1,1-dioxo-1,4-dihydro-1λ^6-benzo[1,2,4]thiadiazin-7-yl}-amide] was run?
A: The IC50 was 20 to 100 nM.

Q: How did the IC50 turn out when `CC(C)(C)CCN1C(=O)C(C2=NS(=O)(=O)c3cc(NS(=O)(=O)C4CC4)ccc3N2)=C(O)C2C3C=CC(C3)C21` (racemic) [Example 43, (rac-di-exo)-Cyclopropanesulfonic acid{3-[3-(3,3-dimethyl-butyl)-6-hydroxy-4-oxo-3-aza-tricyclo[6.2.1.0^2,7]undeca-5,9-dien-5-yl]-1,1-dioxo-1,4-dihydro-1λ^6-benzo[1,2,4]thiadiazin-7-yl}-amide] was run?
A: Its IC50 is 20 to 100 nM.

Q: With `CC(C)CCN1C(=O)C(C2=NS(=O)(=O)c3cc(NS(=O)(=O)C4CC4)ccc3N2)=C(O)C2C3C=CC(C3)C21` (racemic) [Example 45, (rac-di-exo)-Cyclopropanesulfonic acid{3-[6-hydroxy-3-(3-methyl-butyl)-4-oxo-3-aza-tricyclo[6.2.1.0^2,7]undeca-5,9-dien-5-yl]-1,1-dioxo-1,4-dihydro-1λ^6-benzo[1,2,4]thiadiazin-7-yl}-amide] as the molecule, how does the IC50 read?
A: Its IC50 is 20 to 100 nM.

Q: `O=C1C(C2=NS(=O)(=O)c3cc(NS(=O)(=O)C4CC4)ccc3N2)=C(O)C2C3C=CC(C3)C2N1Cc1ccc(F)cc1` (racemic) [Example 46, (rac-di-exo)-Cyclopropanesulfonic acid{3-[3-(4-fluoro-benzyl)-6-hydroxy-4-oxo-3-aza-tricyclo[6.2.1.0^2,7]undeca-5,9-dien-5-yl]-1,1-dioxo-1,4-dihydro-1λ^6-benzo[1,2,4]thiadiazin-7-yl}-amide] was tested. Which IC50 did it give?
A: The IC50 was under 20 nM.
